Experimental data from patent publication US20140227731A1, “DRUG FOR ANALYSIS OF WATER TRANSPORT FUNCTION OF MEMBRANE PROTEIN IN BIOLOGICAL TISSUE” (TAIYO NIPPON SANSO CORPORATION, priority 2013, published 2014).

System: radish
Assay: Permeation of red food coloring water into round radish slices
Procedure: Using radish that was cut into round slices with thicknesses of 6-10 cm, the bottom faces of the round slices were immersed in red food coloring water for 1-16 hours, As the red food coloring, Red No. 102 (chemical name: 7-hydroxy-8-(4-sulfonaphthylazo)-1,3-naphthylenedisulfonic acid=trisodium salt=1½ hydrate) was used.

SMILES: O.O.O.O=S(=O)([O-])c1cc(S(=O)(=O)[O-])c2c(N=Nc3ccc(S(=O)(=O)[O-])c4ccccc34)c(O)ccc2c1.O=S(=O)([O-])c1cc(S(=O)(=O)[O-])c2c(N=Nc3ccc(S(=O)(=O)[O-])c4ccccc34)c(O)ccc2c1.[Na+].[Na+].[Na+].[Na+].[Na+].[Na+] [Red No. 102, 7-hydroxy-8-(4-sulfonaphthylazo)-1,3-naphthylenedisulfonic acid=trisodium salt=1½ hydrate]
- permeation of red food coloring into radish tissue (bottom face immersed, one hour elapsed): had soaked into the connective tissue at the periphery of the round slices from the bottom face
- sites permeated by red food coloring water (immersed for 16 hours): not found anywhere other than the connective tissue
